What was measured:
[1] = test system: HT-29; assay: Autophagy induction, monodansylcadaverine (MDC) fluorescence; format: cell-based, human; settings: compound at IC50, 24 h, vs control
Procedure: Autophagy induction in cells treated with the tested drugs was determined by measuring Monodansylcadaverine (MDC; Sigma-Aldrich; St. Louis, MO, USA) fluorescence according to a modified method described by Vázquez. […] In the cell, MDC accumulates in lipid-rich cell membranes. It has been shown that MDC can be used as a dye for detecting autophagy, as it accumulates in autophagolysosomes as a result of interaction with membrane lipids.
Cells were seeded in black 96-well fluorometric microplates at a density of 10 × 10^3 cells/mL. […] Following compound incubation, the medium was removed, and the cell monolayers were washed twice with HBSS (140 mM NaCl, 5 mM KCl, 0.8 mM MgCl2, 1.8 mM CaCl2, 1 mM Na2HPO4, 10 mM HEPES, and 1% glucose). A solution of MDC at a final concentration of 50 μM was added to each well and incubated in a CO2 cell culture incubator at 37 °C for 15 min. After incubation with MDC, the probe was removed, and the cells were lysed with 50 μL of lysis buffer (10 mM TRIS-HCl; pH 8 containing 0.1% Triton X-100). After lysis, fluorescence was measured at an excitation wavelength of λex = 390 nm and an emission wavelength of λem = 460 nm using a Perkin-Elmer LS-5B spectrofluorometer (Waltham, MA, USA). In order to normalize the number of cells in individual samples, the amount of DNA was determined by adding 50 μL of EB (final concentration 0.2 mM) to each well after measuring the MCB fluorescence and measuring the EB fluorescence at an excitation wavelength of λex = 530 nm and an emission wavelength of λem = 590 nm. The results were calculated as the ratio of MDC fluorescence to EB fluorescence.

[2] = test system: HCT 116; assay: MTT cell viability assay; format: cell-based; settings: Homo sapiens, 24 h incubation with compound, mean ± SD of three experiments, read-out: Cytotoxic effect, IC50
[3] = test system: LoVo; assay: MTT test after pre-incubation with antioxidants NAC or Trolox; format: cell-based, human; settings: vs cells without antioxidant pre-incubation
Procedure: Moreover, the elevation of ROS levels was accompanied by a decrease in intracellular GSH. To investigate the role of ROS in the cytotoxic activity of flavonoid derivatives against cancer cells, LoVo cancer cells were pre-treated with antioxidants, NAC or a water-soluble derivative of vitamin E (Trolox), for 1 h before exposure to the studied compounds. Subsequently, the MTT assay was performed.
To elucidate the involvement of ROS in the cytotoxic effects of the investigated compounds, cells were pre-treated with the vitamin E (Trolox, Sigma-Aldrich, St. Louis, MO, USA) or N-Acetylcysteine (NAC) antioxidants for 1 h. Cells were seeded into sterile, colorless 96-well microplates at a density of 6–8 × 10^3 cells/mL, contingent upon the cell line. Following a 24 h culture period, Trolox or NAC was added at a final concentration of 50 μM and 3 mM, respectively. After 1 h of incubation, the antioxidants were removed by washing, and test compounds were administered at appropriate concentrations (10–200 μM) in fresh cell culture medium, followed by a 24 h incubation. The MTT assay was then conducted under identical experimental conditions, as detailed in Section 2.2.

## O=C1/C(=C/c2ccccc2)COc2ccccc21 [Compound 1]
[1]
  Increase in MDC fluorescence intensity (autophagy): 25%
[2]
  IC50: 10.1 ± 1.3 µM

## COc1cccc(/C=C2/C(=O)c3ccccc3OC2c2ccccc2)c1 (stereo not drawn) [Compound 3]
[2]
  IC50: 18.6 ± 1.4 µM
[3]
  Change of the IC50 value after pre-incubation with Trolox: Statistically significant increases in the IC50 value

## O=C1/C(=C/c2ccccc2)C(c2ccccc2)Oc2ccccc21 (stereo not drawn) [Compound 5]
[1]
  Increase in MDC fluorescence intensity (autophagy): 20%
[3]
  Change of the IC50 value after pre-incubation with Trolox: Statistically significant increases in the IC50 value
